Surface tension liquid-gas and mass density data for 14 compounds are collected here from the NIST ThermoML archive (doi:10.1016/j.jct.2018.12.042).

± gives the expanded uncertainty stated by the source.

For the data set the following is noted: for surface tension liquid-gas: Pendant drop shape; for mass density: 101.33 kPa, Liquid, Vibrating tube method.

Regarding `BrCCBr` [1,2-dibromoethane], the surface tension liquid-gas by setting is: (293.15 K) 38.81 ± 0.7 mN/m; (298.15 K) 38.07 ± 0.69 mN/m; (303.15 K) 37.48 ± 0.68 mN/m; (308.15 K) 36.75 ± 0.67 mN/m; (313.15 K) 36.1 ± 0.66 mN/m.
On the same counts, the results for `ClCCCl` [1,2-dichloroethane] are 28 ± 0.52 mN/m, 27.57 ± 0.51 mN/m, 27.06 ± 0.5 mN/m, 26.54 ± 0.49 mN/m and 26.02 ± 0.48 mN/m.
The like results for `BrCCCBr` [1,3-dibromopropane] were, in that order, 39.66 ± 0.72 mN/m, 38.95 ± 0.71 mN/m, 38.33 ± 0.7 mN/m, 37.6 ± 0.68 mN/m and 37.12 ± 0.68 mN/m.
For the compound `ClCCCCl` [1,3-dichloropropane], the mass density by setting is: (288.15 K) 1189.09 ± 1.1 kg/m3; (293.15 K) 1184.88 ± 1.1 kg/m3; (298.15 K) 1178.97 ± 1.1 kg/m3; (303.15 K) 1173.1 ± 1.1 kg/m3; (308.15 K) 1167.26 ± 1.1 kg/m3; (313.15 K) 1161.46 ± 1.1 kg/m3. The mass density is 1154.88 ± 1.1 kg/m3 (318.15 K) and 1142.62 ± 1.1 kg/m3 (328.15 K). Besides, the surface tension liquid-gas came to 31.22 ± 0.57 mN/m (293.15 K); 30.77 ± 0.57 mN/m (298.15 K); 30.2 ± 0.56 mN/m (303.15 K); 29.36 ± 0.54 mN/m (308.15 K); 28.7 ± 0.53 mN/m (313.15 K).
For the compound `BrCCCCBr` [1,4-dibromobutane], the surface tension liquid-gas runs as follows: (293.15 K) 39.91 ± 0.72 mN/m; (298.15 K) 39.46 ± 0.72 mN/m; (303.15 K) 38.92 ± 0.71 mN/m; (308.15 K) 38.29 ± 0.7 mN/m; (313.15 K) 37.67 ± 0.68 mN/m.
The like results for `ClCCCCCl` [1,4-dichlorobutane] were, in that order, 33.73 ± 0.62 mN/m, 33.15 ± 0.61 mN/m, 32.55 ± 0.6 mN/m, 32.1 ± 0.59 mN/m and 31.59 ± 0.58 mN/m.
The like results for `BrCCCCCBr` [1,5-dibromopentane] were, in that order, 39.37 ± 0.71 mN/m, 38.65 ± 0.7 mN/m, 38.16 ± 0.69 mN/m, 37.6 ± 0.68 mN/m and 37.23 ± 0.68 mN/m.
For `ClCCCCCCl` [1,5-dichloropentane], the mass density is recorded as 1103.31 ± 1 kg/m3 (288.15 K); 1100.06 ± 1 kg/m3 (293.15 K); 1095.01 ± 1 kg/m3 (298.15 K); 1089.95 ± 1 kg/m3 (303.15 K); 1084.89 ± 1 kg/m3 (308.15 K); 1079.84 ± 1 kg/m3 (313.15 K). Moreover, the mass density runs as follows: (318.15 K) 1074.67 ± 1 kg/m3; (328.15 K) 1064.63 ± 1 kg/m3. For the same compound, the surface tension liquid-gas runs as follows: (293.15 K) 35.02 ± 0.64 mN/m; (298.15 K) 34.43 ± 0.63 mN/m; (303.15 K) 33.85 ± 0.62 mN/m; (308.15 K) 33.22 ± 0.61 mN/m; (313.15 K) 32.78 ± 0.6 mN/m.
As to `BrCCCCCCBr` [1,6-dibromohexane], the surface tension liquid-gas is, setting by setting: (293.15 K) 38.92 ± 0.71 mN/m; (298.15 K) 38.36 ± 0.7 mN/m; (303.15 K) 37.78 ± 0.69 mN/m; (308.15 K) 37.21 ± 0.68 mN/m; (313.15 K) 36.63 ± 0.67 mN/m.
On the same counts, the results for `ClCCCCCCCl` [1,6-dichlorohexane] are 35 ± 0.71 mN/m, 34.31 ± 0.69 mN/m, 33.73 ± 0.68 mN/m, 33.09 ± 0.67 mN/m and 32.7 ± 0.66 mN/m.
On the same counts, the results for `BrCBr` [dibromomethane] are 38.5 ± 0.7 mN/m, 37.76 ± 0.69 mN/m, 37.09 ± 0.68 mN/m, 36.32 ± 0.66 mN/m and 35.55 ± 0.65 mN/m.
Turning to `CCCCCCO` [hexan-1-ol], the surface tension liquid-gas (288.15 K) was 26.34 ± 0.49 mN/m; the surface tension liquid-gas (293.15 K) is 26.06 ± 0.48 mN/m; the surface tension liquid-gas (298.15 K) was 25.71 ± 0.48 mN/m; the surface tension liquid-gas (303.15 K) is reported as 25.34 ± 0.47 mN/m; the surface tension liquid-gas (308.15 K) amounted to 24.9 ± 0.5 mN/m; the surface tension liquid-gas (313.15 K) amounted to 24.52 ± 0.46 mN/m. Also, where the note is “318.15 K”, the surface tension liquid-gas was determined as 24.12 ± 0.45 mN/m. Moreover, the mass density (298.15 K) is reported as 815.18 ± 1 kg/m3.
Consider `CCCCCO` [pentan-1-ol], for which the surface tension liquid-gas (293.15 K) was found to be 25.17 ± 0.47 mN/m; the surface tension liquid-gas (298.15 K) is 24.85 ± 0.46 mN/m; the surface tension liquid-gas (303.15 K) came to 24.4 ± 0.5 mN/m; the surface tension liquid-gas (308.15 K) came to 23.96 ± 0.45 mN/m; the surface tension liquid-gas (313.15 K) came to 23.62 ± 0.44 mN/m; the surface tension liquid-gas (318.15 K) turned out to be 23.28 ± 0.44 mN/m. Besides, the mass density (298.15 K) is 810.84 ± 1 kg/m3.
For the compound `O` [water], the surface tension liquid-gas was 73.43 ± 1.2 mN/m (288.15 K), 72.84 ± 1.2 mN/m (293.15 K) and 72.14 ± 1.2 mN/m (298.15 K).
